This note sets out measurements from article PMC7909954 (eLife, 2021).

The target of assay [1] is T1, MOR (Homo sapiens, UniProt P35372). The assay can be described thus: cell-based.
Assay [2] concerns the target T2, mMOR (Mus musculus, UniProt P42866). The experiment in a line: cell-based.
The target of assay [3] is T3, mKOR (Mus musculus, UniProt P33534). The assay can be described thus: biochemical.
In assay [4] the test system is 330 non-olfactory GPCRs. The assay can be described thus: PRESTO-Tango GPCRome β-arrestin recruitment off-target screen. As to conditions: 3 μM, follow-up concentration–response. The assay is classed as cell-based. On the procedure:
To identify potential off-target activity of MP1207, we used the National Institutes of Mental Health Psychoactive Drug Screen Program. MP1207 was first tested for activity against 330 non-olfactory GPCRs using the PRESTO-Tango GPCRome screening β-arrestin recruitment assay at 3 μM MP1207. The activity at each receptor was measured in quadruplicate.
Screening of compounds was accomplished using previously described methods with several modifications ([Kroeze et al., 2015]). First, HTLA cells were plated in DMEM with 2% dialyzed FBS and 10 U/mL penicillin-streptomycin. Next, the cells were transfected using an in-plate PEI method ([Longo et al., 2013]). PRESTO-Tango receptor DNAs were resuspended in OptiMEM and hybridized with PEI prior to dilution and distribution into 384-well plates and subsequent addition to cells. After overnight incubation, drugs diluted in DMEM with 1% dialyzed FBS were added to cells without replacement of the medium. The remaining steps of the PRESTO-Tango protocol were followed as previously described.
Appendix 1—figure 6. […] MP1207 was screened against 330 non-olfactory GPCRs for agonism in the arrestin recruitment TANGO assay. […] MP1207 induces an increase in signal twofold over basal at opioid receptors predominantly at KOR and DOR and much less at MOR.
A general note: Arrestin recruitment assays detect the binding of arrestin to an activated receptor.

Assay [5] deals with T2, mMOR. The experiment in a line: cell-based. Details: expressed in transfected cells; host or cells: HEK-293T.
The target of assay [6] is KOR (Homo sapiens, UniProt P41145). The experiment in a line: cell-based.
In assay [7] the target is T4, rKOR (Rattus norvegicus, UniProt P34975). The experiment in a line: cell-based.
Assay [8] concerns the target T2, mMOR. The experiment in a line: biochemical.
Assay [9] addresses T5, α2C-adrenoreceptors (Homo sapiens, UniProt P18825).
T5 construct: NIMH Psychoactive Drug Screening Program
T5 sequence (P18825 1-462): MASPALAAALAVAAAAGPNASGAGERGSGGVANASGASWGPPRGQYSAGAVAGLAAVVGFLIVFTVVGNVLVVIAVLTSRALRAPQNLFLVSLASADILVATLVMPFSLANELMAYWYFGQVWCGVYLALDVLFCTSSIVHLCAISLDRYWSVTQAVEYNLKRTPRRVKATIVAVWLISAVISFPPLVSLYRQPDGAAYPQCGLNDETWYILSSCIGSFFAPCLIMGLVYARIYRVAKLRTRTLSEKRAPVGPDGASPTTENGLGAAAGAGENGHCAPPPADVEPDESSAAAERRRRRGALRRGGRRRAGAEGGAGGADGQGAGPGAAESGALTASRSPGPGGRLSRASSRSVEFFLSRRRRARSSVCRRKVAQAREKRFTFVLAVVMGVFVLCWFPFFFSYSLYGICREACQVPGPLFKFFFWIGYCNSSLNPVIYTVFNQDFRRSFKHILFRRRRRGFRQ
The assay can be described thus: Radioligand binding counter-screen (NIMH PDSP). For orientation: Counterscreens check selectivity or assay interference.

The target of assay [10] is T1, MOR.
For assay [11], the target named is T4, rKOR. The settings on record: BRET, rodent receptors.
In assay [12] the target is T2, mMOR. The assay can be described thus: biochemical. This is another data set of the same source.
Assay [13] has as its target DOR (Homo sapiens, UniProt P41143). The assay can be described thus: cell-based.
Assay [14] addresses T3, mKOR. The assay can be described thus: biochemical. This is another data set of the same source.

Several values for one entry are separate records, joined by “and”; a condition that tells them apart may be missing. Identical values can stand only once. Entries after “also recorded” stand apart in the source; their conditions may differ.

T1 sequence (P35372 whole entry): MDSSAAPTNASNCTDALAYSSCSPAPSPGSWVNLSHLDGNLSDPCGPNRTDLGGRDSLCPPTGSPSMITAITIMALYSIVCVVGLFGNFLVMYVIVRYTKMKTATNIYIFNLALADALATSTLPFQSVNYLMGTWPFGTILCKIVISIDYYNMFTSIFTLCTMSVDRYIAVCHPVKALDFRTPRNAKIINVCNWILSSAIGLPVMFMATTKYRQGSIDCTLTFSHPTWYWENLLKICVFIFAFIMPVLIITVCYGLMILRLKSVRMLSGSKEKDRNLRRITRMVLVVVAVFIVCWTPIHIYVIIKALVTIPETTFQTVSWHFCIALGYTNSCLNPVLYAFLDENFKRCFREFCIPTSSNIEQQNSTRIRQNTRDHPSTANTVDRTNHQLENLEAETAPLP
KOR, sequence (P41145 whole entry): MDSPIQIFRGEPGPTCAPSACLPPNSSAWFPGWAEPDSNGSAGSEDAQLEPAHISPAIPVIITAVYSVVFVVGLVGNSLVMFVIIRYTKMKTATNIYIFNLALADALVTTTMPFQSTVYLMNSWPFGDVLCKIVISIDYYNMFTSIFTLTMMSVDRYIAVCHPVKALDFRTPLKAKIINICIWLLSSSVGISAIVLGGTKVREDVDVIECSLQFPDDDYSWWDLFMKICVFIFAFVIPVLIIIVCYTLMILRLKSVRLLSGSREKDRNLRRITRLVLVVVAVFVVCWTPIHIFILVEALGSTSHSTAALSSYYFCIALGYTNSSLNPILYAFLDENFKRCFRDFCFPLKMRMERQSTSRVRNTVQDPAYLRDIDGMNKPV
T4 sequence (P34975 whole entry): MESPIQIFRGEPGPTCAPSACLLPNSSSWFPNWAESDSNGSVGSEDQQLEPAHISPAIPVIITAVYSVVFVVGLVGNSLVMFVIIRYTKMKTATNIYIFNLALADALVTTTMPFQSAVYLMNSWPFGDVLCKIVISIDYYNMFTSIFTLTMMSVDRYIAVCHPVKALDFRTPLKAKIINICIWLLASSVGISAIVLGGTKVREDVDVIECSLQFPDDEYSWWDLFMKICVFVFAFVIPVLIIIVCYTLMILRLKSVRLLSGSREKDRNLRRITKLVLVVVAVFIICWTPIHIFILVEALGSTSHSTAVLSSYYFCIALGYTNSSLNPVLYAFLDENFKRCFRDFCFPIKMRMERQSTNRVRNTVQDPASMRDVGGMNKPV
T3 sequence (P33534 whole entry): as the sequence (P34975 whole entry) above, with E11D, A17S, P51S, V308A counted along it
T2 sequence (P42866 whole entry): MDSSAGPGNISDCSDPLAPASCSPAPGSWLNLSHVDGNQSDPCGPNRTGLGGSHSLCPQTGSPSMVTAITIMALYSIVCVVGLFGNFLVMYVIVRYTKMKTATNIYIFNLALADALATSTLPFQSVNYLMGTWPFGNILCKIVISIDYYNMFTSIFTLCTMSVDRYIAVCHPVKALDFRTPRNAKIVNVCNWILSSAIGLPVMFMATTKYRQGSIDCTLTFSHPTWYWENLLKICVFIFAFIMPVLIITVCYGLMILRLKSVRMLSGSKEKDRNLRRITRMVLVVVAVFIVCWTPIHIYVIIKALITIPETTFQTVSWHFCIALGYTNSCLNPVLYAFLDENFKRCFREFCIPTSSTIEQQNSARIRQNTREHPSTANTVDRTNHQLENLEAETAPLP
DOR, sequence (P41143 whole entry): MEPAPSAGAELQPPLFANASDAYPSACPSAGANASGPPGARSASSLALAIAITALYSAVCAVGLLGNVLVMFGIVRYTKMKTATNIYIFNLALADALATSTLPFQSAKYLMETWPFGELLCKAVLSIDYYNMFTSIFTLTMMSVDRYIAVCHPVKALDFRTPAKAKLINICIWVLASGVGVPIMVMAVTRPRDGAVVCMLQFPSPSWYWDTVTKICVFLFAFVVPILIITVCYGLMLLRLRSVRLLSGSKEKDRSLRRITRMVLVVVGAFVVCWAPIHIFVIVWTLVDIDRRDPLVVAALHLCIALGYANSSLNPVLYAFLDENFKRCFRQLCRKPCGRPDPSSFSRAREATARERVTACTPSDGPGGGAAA

On to `NCc1cccc(C(=O)N[C@@H]2CCC3C4Cc5ccc(O)c6c5[C@@]3(CCN4CC3CC3)C2O6)c1` (stereo partly drawn) [MP1207, 3-(Aminomethyl)-N-((7R,12bS)−3-(cyclopropylmethyl)−9-hydroxy-2,3,4,4a,5,6,7,7a-octahydro-1H-4,12-methanobenzofuro[3,2-e]isoquinolin-7-yl)benzamide], for which the Emax in assay [1] (HEK-293T, read-out: Emax% cAMP inhibition hMOR) was 33 ± 1.4%; in assay [2] (HEK-293T, read-out: Emax% G protein activation (BRET) mMOR) it was 42 ± 2.6%; in assay [6] (HEK-293T, read-out: Emax% cAMP inhibition hKOR) it was 90 ± 1.7%; in [7] (HEK-293T, read-out: Emax% G protein activation (BRET) rKOR), 32 ± 2.3%; in [8] (read-out: Emax mMOR [35S]GTPγS), 41 ± 1%; in assay [13] (HEK-293T, read-out: Emax% cAMP inhibition hDOR), 38 ± 2%. Further, the Emax in assay [14] (read-out: Emax mKOR [35S]GTPγS) amounted to 39.3 ± 1.3%. Also, the EC50 in [1] (pEC50 cAMP inhibition hMOR) is 0.0339 nM; in assay [2] (EC50 G protein activation (BRET) mMOR), 3.61 nM; in assay [6] (EC50 cAMP inhibition hKOR), 0.11 nM; in [6] (pEC50 cAMP inhibition hKOR, ± SEM) it was 0.105 nM; in assay [7], 1.13 nM; in assay [8] (EC50 mMOR [35S]GTPγS, ± SEM), 1.3 nM and 1.29 nM. Also, the half-maximal effective concentration (EC50) in assay [13] (EC50 cAMP inhibition hDOR) was 11.4 nM; in [14] (EC50 mKOR [35S]GTPγS, ± SEM), 1.5 nM and 1.52 nM. The Ki in assay [3] is 0.39 ± 0.05 nM; in assay [9], 2980 nM; in [12], 0.23 ± 0.02 nM. In assay [4], the “agonism at 330 non-olfactory GPCRs (in words)” value is on record as “selective for opioid receptors; also recorded: no potent activity was confirmed”. For the same compound, the “arrestin recruitment at mMOR (in words)” value in assay [5] is recorded as “No recruitment of βarrestin-2”. The “arrestin recruitment at hMOR (in words)” value in assay [10] is on record as “completely abolished”. Moreover, in assay [11], the “arrestin recruitment at rKOR (in words)” value was “No recruitment of βarrestin-2”.

The term Emax denotes the maximal effect, on the per cent scale that the assay sets. What is called EC50 is the midpoint of the concentration-response curve. The term Ki denotes the equilibrium dissociation constant of an inhibitor or competing ligand from its target.
